Like-named read-outs stand apart in the source and are kept apart here.
Experiments:
[1] = assay type: physicochemical; details: pH 7.4
Text: (§1) Solubility and Cell permeability
(§2) The thermodynamic aqueous solubility, LogD and cell permeability across MCDCK cell monolayers
(§3) Table S21. MCDCK permeability data and efflux ratios (ERs) for grazoprevir.
(§4) Solubility LogD7.4[b] PappAB (x10-6 ER[d]
[a] Determined in aqueous potassium phosphate buffer at pH 7.4. Values are means ± std from three repeats. […]

[2] = assay type: physicochemical; details: pH 7.4; remark: listed apart in the source
Text: as §1, §2, §3
Solubility LogD7.4[b] PappAB (x10-6 ER[d] […]
[b] Determined using a miniaturized shake-flask procedure. Values are means from three repeats. […]

MCDCK cell monolayers [3] = assay type: in vitro ADME
Text: as §1, §2, §3, §4
[a] Determined in aqueous potassium phosphate buffer at pH 7.4. Values are means ± std from three repeats.
[b] Determined using a miniaturized shake-flask procedure. Values are means from three repeats.
[c] Papp AB: permeability in the apical-to-basolateral (AB) direction across MCDCK cell monolayers. Values are
means + std from three repeats.
[d] ER: efflux ratio (Papp BA/Papp AB).

MCDCK cell monolayers [4] = details: comparison value quoted in Conclusions; not in the printed Table S21; cited from earlier work
Text: This study presents a comprehensive analysis of a macrocyclic drug's conformational journey by experimental means; from the solid state, through solution environments, to the target‐bound state. […] By determining solution‐state ensembles of grazoprevir in both polar and apolar environments—mimicking extracellular and membrane‐like conditions—and comparing these to previously repo ...

[5] = cited from earlier work; for SA 3D PSA variation between solution conformations / spread in Rgyr for the solution ensembles: solution ensembles
Text: Grazoprevir (Figure 1a) is a second‐generation hepatitis C virus (HCV) nonstructural 3/4A (NS3/NS4A) protease inhibitor developed by Merck in 2012 and approved by the FDA in 2016 as part of an orally administered combination therapy with elbasvir. Like most NS3/NS4A protease inhibitors, grazoprevir is orally available despite its limited water solubility (Table S21). The potential chameleonicity of grazoprevir has not yet been structurally characterized. Determining the structures of bRo5 inhibitors like grazoprevir in various states is crucial for understanding their chame ... || For bRo5‐drugs, 3D descriptors such as the R gyr as a measure of size instead of molecular weight, and the SA 3D PSA instead of the number of hydrogen bond donors and acceptors, often provide a better view to explain their aqueous solubility and membrane permeability. Even though the exact values of the R gyr and SA 3D PSA for a single conformation might not be informative, they can give a perspective when compared for conformations between solvents or between similar compounds [6, 23]. In solution the SA 3D PSA varies by 79 Å^2 (Supporting information Figure S13) between the c ...

[6] = conformations assessed computationally

For C=C[C@@H]1C[C@]1(NC(=O)[C@@H]1C[C@@H]2CN1C(=O)[C@H](C(C)(C)C)NC(=O)O[C@@H]1C[C@H]1CCCCCc1nc3ccc(OC)cc3nc1O2)C(=O)NS(=O)(=O)C1CC1.O [grazoprevir, Grazoprevir], the Solubility [1] was 12.9 ± 2.6 µM, the LogD7.4 [2] was 3.4 and the “ER (efflux ratio, Papp BA/Papp AB)” value (MCDCK cell monolayers [3]) was 3.1. For the same compound, the PappAB (MCDCK cell monolayers [3]) was 5.9 ± 0.89 x10-6 cm/s and the passive membrane permeability (MCDCK cell monolayers [3]) was 5.9 ×10⁻⁶ cm/s.

For COc1ccc2c(O[C@@H]3C[C@H]4C(=O)N[C@]5(C(=O)NS(=O)(=O)C6CC6)C[C@H]5/C=C\CCCCN(C)C(=O)[C@@H]4C3)cc(-c3nc(C(C)C)cs3)nc2c1C [simeprevir], the passive membrane permeability (MCDCK cell monolayers [4]) is given as 0.5 ×10⁻⁶ cm/s, the “SA 3D PSA variation between solution conformations” value [5] is given as 72 Å^2 and the “spread in Rgyr for the solution ensembles” value [5] is given as 1.11 Å.

In the case of Cc1cnc(C(=O)N[C@H]2CCCCC/C=C\[C@@H]3C[C@@]3(C(=O)NS(=O)(=O)C3CC3)NC(=O)[C@@H]3C[C@@H](Oc4nc5ccccc5c5ccccc45)CN3C2=O)cn1 [paritaprevir], the “Rgyr range for the solution conformations (polar-to-apolar span)” value [5, 6] is given as 0.36 Å and the “SA 3D PSA polar-to-apolar span” value [5, 6] is given as 76 Å^2.

In the case of C=C[C@@H]1C[C@]1(NC(=O)[C@@H]1C[C@@H](Oc2ncc(OC)c3ccc(Cl)cc23)CN1C(=O)[C@@H](NC(=O)OC(C)(C)C)C(C)(C)C)C(=O)NS(=O)(=O)C1CC1 [asunaprevir], the “SA 3D PSA variation between solution conformations” value [5] is given as 88 Å^2 and the “spread in Rgyr for the solution ensembles” value [5] is given as 1.22 Å.
